The values that follow come from patent publication US20260109721A1, “IONIZABLE CATIONIC LIPIDS INCORPORATING SILICON: SYNTHESIS AND LNP FORMULATION” (priority 2023, published 2026).

The data set in a line: LNP size and size distribution by Dynamic Light Scattering (Method B). The data set is classed as physicochemical. The note with it: DLS; for Size (nm): Z-average. How it is done: • 0.33 ug/uL mRNA solution in DEPC-treated water (RiboPro, Off-The-Shelf mRNA; eGFP with Cap 1) • 0.04 ug/uL mRNA solution in DEPC-treated water (RiboPro, Off-The-Shelf mRNA; eGFP with Cap 1)
In 1.5 mL eppendorf: • a) Place 2.9 uL of 0.33 ug/uL mRNA solution into Eppendorf tube • b) Add 1.94 μL of supplied ethanolic solution of tested lipid and immediately mix by working pipette up-and-down several times (work the solution up and down several times before transferring to saturate pipette tip with ethanol vapors) • c) Incubate for 15 minutes. • d) Add 536 μL of MEM. Mix the solution by vortexing. • e) Incubate for 30 minutes.
• a) Place 45 μL Lipofectamine-50 solution into 1.5 mL sterile Eppendorf tube. • b) Add 315 μL of MEM. Vortex. • c) Incubate 15 min. Size and Size Distribution Measurements with Dynamic Light Scattering • 1. Transfer 100 μL of freshly prepared LNP formulation in DLS micro cuvette. • 2. Place the formulation into Zetasizer pre-heated to 37 C. • 3. Equilibrate the sample for 5 minutes. • 4. Perform the size measurement in triplicate (settings: position and gain auto). • 5. For QC examine correlation curve to have no disturbances. Report Z-average and PDI based on cumulants fit. Transfection Efficiency with GFP mRNA (Method B)

As for `CCCCC/C=C\C/C=C\CCCCCCCCOC(CCCCCCC/C=C\C/C=C\CCCCC)O[Si](C)(C)OCCCCCCN(CCO)CCO` (stereo not shown) [Example 48, (23Z,26Z)-13-((8Z,11Z)-heptadeca-8,11-dien-1-yl)-3-(2-hydroxyethyl)-11,11-dimethyl-10,12,14-trioxa-3-aza-11-siladotriaconta-23,26-dien-1-ol], the PDI amounted to 0.128 and the “Size (nm)” value was found to be 180 nm.
`CCCCC/C=C\C/C=C\CCCCCCCCOC(CCCCCCC/C=C\C/C=C\CCCCC)O[Si](C)(C)OCCCCCCN(C)CCO` (stereo not shown) [Example 56, (23Z,26Z)-13-((8Z,11Z)-heptadeca-8,11-dien-1-yl)-3,11,11-trimethyl-10,12,14-trioxa-3-aza-11-siladotriaconta-23,26-dien-1-ol]: the PDI is recorded as 0.092 and the “Size (nm)” value is on record as 185 nm.
